Data on 33 compounds can be found in US20240391926A1, “SPIROINDOLINONE COMPOUNDS AS Kv1.3 POTASSIUM SHAKER CHANNEL BLOCKERS” (D.E. Shaw Research, LLC, priority 2021, published 2024).

The target in this test is T1, Kv1.3 potassium channel (Homo sapiens, UniProt P22001).
T1 construct: expressed in transfected cells
The test can be described thus: Kv1.3 potassium channel blocker activity, automated whole-cell patch clamp (Patchliner) in CHO-K1 cells stably expressing Kv1.3. It counts as cell-based. The settings on record: 30 nM-100 μM. The procedure:
This assay is used to evaluate the disclosed compounds' activities as Kv1.3 potassium channel blockers.
CHO-K1 cells stably expressing Kv1.3 were grown in DMEM containing 10% heat-inactivated FBS, 1 mM sodium pyruvate, 2 mM L-glutamine, and G418 (500 μg/ml). Cells were grown in culture flasks at 37° C. in a 5% CO2-humidified incubator.
The cells were bathed in an extracellular solution containing 140 mM NaCl, 4 mM KCl, 2 mM CaCl2), 1 mM MgCl2, 5 mM glucose, 10 mM HEPES; pH adjusted to 7.4 with NaOH; 295-305 mOsm. The internal solution contained 50 mM KCl, 10 mM NaCl, 60 mM KF, 20 mM EGTA, 10 mM HEPES; pH adjusted to 7.2 with KOH; 285 mOsm. All compounds were dissolved in DMSO at 30 mM. Compound stock solutions were freshly diluted with external solution to concentrations of 30 nM, 100 nM, 300 nM, 1 μM, 3 μM, 10 μM, 30 μM and 100 μM. The highest content of DMSO (0.3%) was present in 100 μM.
The currents were evoked by applying 100 ms depolarizing pulses from −90 mV (holding potential) to +40 mV were applied with 0.1 Hz frequency. Control (compound-free) and compound pulse trains for each compound concentration applied contained 20 pulses. 10-second breaks were used between pulse trains (see Table A below).
Whole-cell current recordings and compound application were enabled by means of an automated patch clamp platform Patchliner (Nanion Technologies GmbH). EPC 10 patch clamp amplifier (HEKA Elektronik Dr. Schulze GmbH) along with Patchmaster software (HEKA Elektronik Dr. Schulze GmbH) was used for data acquisition. Data were sampled at 10 kHz without filtering. Passive leak currents were subtracted online using a P/4 procedure (HEKA Elektronik Dr. Schulze GmbH). Increasing compound concentrations were applied consecutively to the same cell without washouts in between. Total compound incubation time before the next pulse train was not longer than 10 seconds. Peak current inhibition was observed during compound equilibration.
AUC and peak values were obtained with Patchmaster (HEKA Elektronik Dr. Schulze GmbH). To determine IC50, the last single pulse in the pulse train corresponding to a given compound concentration was used. Obtained AUC and peak values in the presence of compound were normalized to control values in the absence of compound. Using Origin (OridinLab), IC50 was derived from data fit to Hill equation: Icompound/Icontrol=(100−A)/(1+([compound]/IC50)nH)+A, where IC50 value is the concentration at which current inhibition is half-maximal, [compound] is the applied compound concentration, A is the fraction of current that is not blocked and nH is the Hill coefficient.

Each structure is given as a SMILES string.

T1 sequence (P22001 whole entry): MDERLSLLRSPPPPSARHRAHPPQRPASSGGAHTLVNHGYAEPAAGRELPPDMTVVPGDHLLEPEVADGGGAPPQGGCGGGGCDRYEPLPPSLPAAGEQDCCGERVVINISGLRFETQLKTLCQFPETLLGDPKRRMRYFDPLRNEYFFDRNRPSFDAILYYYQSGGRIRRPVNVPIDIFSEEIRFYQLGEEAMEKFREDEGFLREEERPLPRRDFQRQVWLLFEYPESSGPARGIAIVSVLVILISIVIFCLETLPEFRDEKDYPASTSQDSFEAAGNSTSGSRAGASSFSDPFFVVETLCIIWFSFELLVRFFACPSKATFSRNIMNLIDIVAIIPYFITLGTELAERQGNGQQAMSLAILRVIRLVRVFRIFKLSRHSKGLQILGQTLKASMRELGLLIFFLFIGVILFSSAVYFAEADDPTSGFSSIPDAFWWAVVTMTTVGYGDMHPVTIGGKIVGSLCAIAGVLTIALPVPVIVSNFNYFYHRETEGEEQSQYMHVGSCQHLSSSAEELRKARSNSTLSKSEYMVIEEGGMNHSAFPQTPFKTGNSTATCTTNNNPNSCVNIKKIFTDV

Take `C[C@@H]1C[C@@]2(CN1C(=O)CO)C(=O)Nc1cc(Cl)c(Cl)cc12` (single isomer, unassigned; isomer 2) [Compound 124, 5,6-dichloro-1′-(2-hydroxyacetyl)-5′-methyl-1H-spiro[indole-3,3′-pyrrolidin]-2-one isomer 2]: the IC50 was less than 10 µM. Then `O=C([C@H]1[C@@H]2CN[C@H]1C2)N1CC[C@]2(C1)C(=O)Nc1cc(Cl)c(Cl)cc12` (single isomer, unassigned; isomer 1) [Compound 57], with less than 3 µM; and `C[C@@H]1N(C(=O)CO)CCC12C(=O)Nc1cc(Cl)c(Cl)cc12` (single isomer, unassigned; diastereoisomer 1) [Compound 133, 5,6-dichloro-1′-(2-hydroxyacetyl)-2′-methylspiro[indoline-3,3′-pyrrolidin]-2-one diastereoisomer 1], with less than 3 µM; and `Nc1nnc(N2CC[C@]3(C2)C(=O)Nc2cc(Cl)c(Cl)cc23)o1` [Compound 132, (S)-1′-(5-amino-1,3,4-oxadiazol-2-yl)-5,6-dichlorospiro[indoline-3,3′-pyrrolidin]-2-one], with less than 3 µM. `O=C([C@@H]1CNC[C@@H]1O)N1CC[C@]2(C1)C(=O)Nc1cc(Cl)c(Cl)cc12` (single isomer, unassigned) [Compound 1] registered a half-maximal inhibitory concentration (IC50) of less than 1 µM. Under `O=C(c1cnn(CCO)c1)N1CC[C@]2(C1)C(=O)Nc1cc(Cl)c(Cl)cc12` [Compound 78, (S)-5,6-dichloro-1′-(1-(2-hydroxyethyl)-1H-pyrazole-4-carbonyl)spiro[indoline-3,3′-pyrrolidin]-2-one] stands less than 10 µM; under `O=C1CC(C(=O)N2CC[C@]3(C2)C(=O)Nc2cc(Cl)c(Cl)cc23)CN1` (single isomer, unassigned; isomer 2) [Compound 75], less than 3 µM. Under `O=C([C@H]1CCCN1)N1CC[C@]2(C1)C(=O)Nc1cc(Cl)c(Cl)cc12` [Compound 23, (S)-1′-(D-prolyl)-5,6-dichlorospiro[indoline-3,3′-pyrrolidin]-2-one] stands less than 3 µM; under `CC[C@H](O)C(=O)N1CC[C@]2(C1)C(=O)Nc1cc(Cl)c(Cl)cc12` [Compound 91, (S)-5,6-dichloro-1′-((S)-2-hydroxybutanoyl)spiro[indoline-3,3′-pyrrolidin]-2-one], less than 3 µM. `Cc1cc(Cl)cc2c1NC(=O)[C@@]21CCN(C(=O)CO)C1` [Compound 140, (S)-5-chloro-1′-(2-hydroxyacetyl)-7-methylspiro[indoline-3,3′-pyrrolidin]-2-one]: the 50% inhibitory concentration (IC50) is less than 1 µM. Then `O=C([C@@H]1CCCN1)N1CC[C@]2(C1)C(=O)Nc1cc(Cl)c(Cl)cc12` [Compound 22, (S)-1′-(L-prolyl)-5,6-dichlorospiro[indoline-3,3′-pyrrolidin]-2-one], with less than 1 µM; and `CC(=O)N1CC[C@]2(C1)C(=O)Nc1cc(Cl)c(Cl)cc12` [Compound 152, (S)-1′-acetyl-5,6-dichlorospiro[indoline-3,3′-pyrrolidin]-2-one], with less than 1 µM. Turning to `O=C(N1CC[C@]2(C1)C(=O)Nc1cc(Cl)c(Cl)cc12)C1(O)CCNC1` (single isomer, unassigned; isomer 1) [Compound 30], the IC50 was less than 1 µM. In turn, `Cn1cc(C(=O)N2CC[C@]3(C2)C(=O)Nc2cc(Cl)c(Cl)cc23)ccc1=O` [Compound 83, (S)-5,6-dichloro-1′-(1-methyl-6-oxo-1,6-dihydropyridine-3-carbonyl)spiro[indoline-3,3′-pyrrolidin]-2-one] displayed an IC50 of less than 10 µM.

As to `CC[C@@H](O)C(=O)N1CC[C@]2(C1)C(=O)Nc1cc(Cl)c(Cl)cc12` [Compound 92, (S)-5,6-dichloro-1′-((R)-2-hydroxybutanoyl)spiro[indoline-3,3′-pyrrolidin]-2-one], the IC50 was less than 10 µM.

Compound `N[C@H](CO)C(=O)N1CC[C@]2(C1)C(=O)Nc1cc(Cl)c(Cl)cc12` [Compound 43, (S)-1′-(D-seryl)-5,6-dichlorospiro[indoline-3,3′-pyrrolidin]-2-one] gave an IC50 of less than 1 µM.

Regarding `O=C1C[C@H](C(=O)N2CC[C@]3(C2)C(=O)Nc2cc(Cl)c(Cl)cc23)CN1` (single isomer, unassigned; isomer 1) [Compound 74], the IC50 is less than 1 µM. Under `C[C@H]1C[C@@]2(CN1C(=O)CO)C(=O)Nc1cc(Cl)c(Cl)cc12` (single isomer, unassigned; isomer 4) [Compound 126, 5,6-dichloro-1′-(2-hydroxyacetyl)-5′-methyl-1H-spiro[indole-3,3′-pyrrolidin]-2-one isomer 4] stands less than 10 µM. Then `O=C(N1CC[C@]2(C1)C(=O)Nc1cc(Cl)c(Cl)cc12)C12CNCC1C2` (single isomer, unassigned; isomer 2) [Compound 33], with less than 1 µM. Under `O=C(CC1(O)CCC1)N1CC[C@]2(C1)C(=O)Nc1cc(Cl)c(Cl)cc12` [Compound 90, (S)-5,6-dichloro-1′-(2-(1-hydroxycyclobutyl)acetyl)spiro[indoline-3,3′-pyrrolidin]-2-one] stands less than 10 µM. `CC(C)C[C@@H](N)C(=O)N1CC[C@]2(C1)C(=O)Nc1cc(Cl)c(Cl)cc12` [Compound 44, (S)-1′-(D-leucyl)-5,6-dichlorospiro[indoline-3,3′-pyrrolidin]-2-one] had an IC50 of less than 3 µM. For the compound `O=C(N1CC[C@]2(C1)C(=O)Nc1cc(Cl)c(Cl)cc12)[C@@]1(F)CCCNC1` [Compound 48, (S)-5,6-dichloro-1′-((R)-3-fluoropiperidine-3-carbonyl)spiro[indoline-3,3′-pyrrolidin]-2-one], the IC50 was less than 1 µM.

Turning to `O=C([C@@H]1CC[C@H](O)C1)N1CC[C@]2(C1)C(=O)Nc1cc(Cl)c(Cl)cc12` (single isomer, unassigned; isomer 4) [Compound 66], the half-maximal inhibitory concentration (IC50) was less than 3 µM. In turn, `COC[C@@H]1C[C@@H](C(=O)N2CC[C@]3(C2)C(=O)Nc2cc(Cl)c(Cl)cc23)CN1` [Compound 110, (3S)-5,6-dichloro-1′-[(3R,5S)-5-(methoxymethyl)pyrrolidine-3-carbonyl]-1H-spiro[indole-3,3′-pyrrolidin]-2-one] showed an IC50 of less than 1 µM. The compound `Cn1nc(C(=O)N2CC[C@]3(C2)C(=O)Nc2cc(Cl)c(Cl)cc23)cc1N` [Compound 41, (S)-1′-(5-amino-1-methyl-1H-pyrazole-3-carbonyl)-5,6-dichlorospiro[indoline-3,3′-pyrrolidin]-2-one] showed an IC50 of less than 10 µM. For the compound `O=C([C@@H]1CC[C@@](O)(CO)C1)N1CC[C@]2(C1)C(=O)Nc1cc(Cl)c(Cl)cc12` (single isomer, unassigned; isomer 2) [Compound 96], the IC50 is less than 3 µM.

`NC(=O)N1CC[C@@]2(C1)C(=O)Nc1cc(Cl)c(Cl)cc12` (single isomer, unassigned) [Compound 155] displayed an IC50 of less than 3 µM. Under `COCC(=O)N1CC[C@]2(C1)C(=O)Nc1cc(Cl)c(Cl)cc12` [Compound 147, (S)-5,6-dichloro-1′-(2-methoxyacetyl)spiro[indoline-3,3′-pyrrolidin]-2-one] stands less than 1 µM; under `O=C([C@H]1CC[C@@H](O)[C@H](O)C1)N1CC[C@]2(C1)C(=O)Nc1cc(Cl)c(Cl)cc12` (single isomer, unassigned; isomer 1) [Compound 107], less than 1 µM. `O=C1Nc2cc(Cl)c(Cl)cc2[C@]12CCN(c1cnccn1)C2` [Compound 149, (S)-5,6-dichloro-1′-(pyrazin-2-yl)spiro[indoline-3,3′-pyrrolidin]-2-one] had an IC50 of less than 3 µM. The compound `N[C@@H](CO)C(=O)N1CC[C@]2(C1)C(=O)Nc1cc(Cl)c(Cl)cc12` [Compound 36, (S)-1′-(L-Seryl)-5,6-dichlorospiro[indoline-3,3′-pyrrolidin]-2-one] returned a 50% inhibitory concentration (IC50) of less than 1 µM.

`CC(C)(O)CC(=O)N1CC[C@]2(C1)C(=O)Nc1cc(Cl)c(Cl)cc12` [Compound 87, (S)-5,6-dichloro-1′-(3-hydroxy-3-methylbutanoyl)spiro[indoline-3,3′-pyrrolidin]-2-one] yielded an IC50 of less than 10 µM. Then `O=C(CO)N1CC[C@@]2(C1)C(=O)Nc1cc(Cl)c(Br)cc12` [Compound 117, (R)-5-bromo-6-chloro-1′-(2-hydroxyacetyl)spiro[indoline-3,3′-pyrrolidin]-2-one], with less than 10 µM.
